Source: patent US9828360B2 (Array BioPharma Inc., priority 2012, dated 2017)

Target: TrkA (Homo sapiens, UniProt P04629)
Experiment: TrkA LanthaScreen Eu Kinase Binding Assay
Set-up: 6HIS tagged cytoplasmic domain from Invitrogen, Cat. No. PV3144; purchased Invitrogen PV3144
Details: averaged IC50 values, read-out: TrkA Enzyme IC50
Description: TrkA binding activity was determined in a TrkA LanthaScreen™ Eu Kinase Binding Assay. 5 nM His-tagged recombinant human TrkA (6HIS tagged cytoplasmic domain from Invitrogen, Cat. No. PV3144) was incubated with 4 nM Alexa-Fluor® Tracer 236 (Invitrogen Cat. No. PV5592), 2 nM biotinylated anti-His (Invitrogen Cat. No. PV6090), and 2 nM europium-labeled Streptavidin (Invitrogen Cat. No. PV5899), in buffer (25 mM MOPS, pH 7.5, 5 mM MgCl2, 0.005% Triton X-100). Three fold serial dilutions of compounds of the invention in DMSO were added to a final percentage of 2% DMSO. After 60-minute incubation at 22° C., the reaction was measured using the EnVision mutlimode plate reader (PerkinElmer) via TR-FRET dual wavelength detection at […]. The percent of control was calculated using a ratiometric emission factor. The IC50 values were determined by fitting a four parameter model to the percent of control data.
Table A provides averaged IC50 values for compounds of the invention when tested in the assay of Example A, where A represents an averaged IC50 value <100 nM; and B represents an averaged IC50 value from 100 to 1,000 nM.

Sequence of TrkA (P04629 440-796 limits assumed): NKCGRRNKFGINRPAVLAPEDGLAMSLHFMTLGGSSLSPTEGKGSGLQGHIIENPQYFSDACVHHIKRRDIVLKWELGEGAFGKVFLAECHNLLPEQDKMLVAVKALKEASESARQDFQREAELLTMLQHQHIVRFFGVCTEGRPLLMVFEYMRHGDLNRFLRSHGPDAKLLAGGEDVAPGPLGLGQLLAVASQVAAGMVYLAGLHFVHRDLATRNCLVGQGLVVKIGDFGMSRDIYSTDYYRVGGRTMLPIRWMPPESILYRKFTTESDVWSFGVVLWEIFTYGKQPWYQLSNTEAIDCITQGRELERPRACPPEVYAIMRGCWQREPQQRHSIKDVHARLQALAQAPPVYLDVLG

Compound	IC50 [nM]
COCCN1C[C@@H](NC(=O)Nc2ccn(C)c(=O)c2-c2ccccc2)[C@H](c2ccc(F)c(F)c2)C1 [Example 33, 1-((3S,4R)-4-(3,4-difluorophenyl)-1-(2-methoxyethyl)pyrrolidin-3-yl)-3-(1-methyl-2-oxo-3-phenyl-1,2-dihydropyridin-4-yl)urea]	100 to 1000
COCCN1C[C@@H](NC(=O)Nc2cc(=O)n(C)nc2-c2ccccc2)[C@H](c2ccc(F)c(F)c2)C1 [Example 34, 1-((3S,4R)-4-(3,4-difluorophenyl)-1-(2-methoxyethyl)pyrrolidin-3-yl)-3-(1-methyl-6-oxo-3-phenyl-1,6-dihydropyridazin-4-yl)urea]	100 to 1000
COCCN1C[C@@H](NC(=O)Nc2cc(=O)n(CC(F)(F)F)nc2-c2ccccc2)[C@H](c2ccc(F)c(F)c2)C1 [Example 35, 1-((3S,4R)-4-(3,4-difluorophenyl)-1-(2-methoxyethyl)pyrrolidin-3-yl)-3-(6-oxo-3-phenyl-1-(2,2,2-trifluoroethyl)-1,6-dihydropyridazin-4-yl)urea]	100 to 1000
COCCN1C[C@@H](NC(=O)Nc2c(-c3ccccc3)nsc2C(N)=O)[C@H](c2ccc(F)c(F)c2)C1 [Example 36, 4-(3-((3S,4R)-4-(3,4-difluorophenyl)-1-(2-methoxyethyl)pyrrolidin-3-yl)ureido)-3-phenylisothiazole-5-carboxamide]	< 100
COCCN1C[C@@H](NC(=O)Nc2c(-c3ccccc3)c(=O)n(C)n2C)[C@H](c2ccc(F)c(F)c2)C1 [Example 39, 1-((3S,4R)-4-(3,4-difluorophenyl)-1-(2-methoxyethyl)pyrrolidin-3-yl)-3-(1,2-dimethyl-5-oxo-4-phenyl-2,5-dihydro-1H-pyrazol-3-yl)urea]	< 100
CCn1c(=O)c(-c2ccccc2)c(NC(=O)N[C@@H]2CN(CCOC)C[C@H]2c2ccc(F)c(F)c2)n1C [Example 40, 1-((3S,4R)-4-(3,4-difluorophenyl)-1-(2-methoxyethyl)pyrrolidin-3-yl)-3-(1-ethyl-2-methyl-5-oxo-4-phenyl-2,5-dihydro-1H-pyrazol-3-yl)urea]	< 100
COCCN1C[C@@H](NC(=O)Nc2sc(C(C)C)nc2-c2ccccc2)[C@H](c2ccc(F)c(F)c2)C1 [Example 47, 1-((3S,4R)-4-(3,4-difluorophenyl)-1-(2-methoxyethyl)pyrrolidin-3-yl)-3-(2-isopropyl-4-phenylthiazol-5-yl)urea]	< 100
COCCN1C[C@@H](NC(=O)Nc2sc(C(=O)OC)nc2-c2ccccc2)[C@H](c2ccc(F)c(F)c2)C1 [Example 49, methyl 5-(3-((3S,4R)-4-(3,4-difluorophenyl)-1-(2-methoxyethyl)pyrrolidin-3-yl)ureido)-4-phenylthiazole-2-carboxylate]	100 to 1000
COCCN1C[C@@H](NC(=O)Nc2sc(CO)nc2-c2ccccc2)[C@H](c2ccc(F)c(F)c2)C1 [Example 50]	< 100
COCCN1C[C@@H](NC(=O)Nc2sc(C(=O)N(C)C)nc2-c2ccccc2)[C@H](c2ccc(F)c(F)c2)C1 [Example 52, 5-(3-((3S,4R)-4-(3,4-difluorophenyl)-1-(2-methoxyethyl)pyrrolidin-3-yl)ureido)-N,N-dimethyl-4-phenylthiazole-2-carboxamide]	100 to 1000
COCCN1C[C@@H](NC(=O)Nc2nc(C)nn2-c2ccccc2)[C@H](c2ccc(F)c(F)c2)C1 [Example 53, 1-((3S,4R)-4-(3,4-difluorophenyl)-1-(2-methoxyethyl)pyrrolidin-3-yl)-3-(3-methyl-1-phenyl-1H-1,2,4-triazol-5-yl)urea]	< 100
COCCN1C[C@@H](NC(=O)Nc2sc(-c3cnn(C)c3)nc2-c2ccccc2)[C@H](c2ccc(F)c(F)c2)C1 [Example 56, 1-((3S,4R)-4-(3,4-difluorophenyl)-1-(2-methoxyethyl)pyrrolidin-3-yl)-3-(2-(1-methyl-1H-pyrazol-4-yl)-4-phenylthiazol-5-yl)urea di(trifluoroacetate)]	< 100

Further lines, results first:

IC50 [nM]	Compound
< 100	COCCN1C[C@@H](NC(=O)Nc2ccc(C)nc2-c2ccccc2)[C@H](c2cc(F)cc(F)c2)C1 [Example 31, 1-((3S,4R)-4-(3,5-difluorophenyl)-1-(2-methoxyethyl)pyrrolidin-3-yl)-3-(6-methyl-2-phenylpyridin-3-yl)urea]
< 100	COCCN1C[C@@H](NC(=O)Nc2ccc(C)nc2-c2ccccc2)[C@H](c2ccc(F)cc2)C1 [Example 32, 1-((3S,4R)-4-(4-fluorophenyl)-1-(2-methoxyethyl)pyrrolidin-3-yl)-3-(6-methyl-2-phenylpyridin-3-yl)urea]
< 100	COCCN1C[C@@H](NC(=O)Nc2c(-c3ccccc3)nc(C)n2C)[C@H](c2ccc(F)c(F)c2)C1 [Example 38, 1-((3S,4R)-4-(3,4-difluorophenyl)-1-(2-methoxyethyl)pyrrolidin-3-yl)-3-(1,2-dimethyl-4-phenyl-1H-imidazol-5-yl)urea]
100 to 1000	COCCN1C[C@@H](NC(=O)Nc2oc(-c3ccccc3)nc2C)[C@H](c2ccccc2)C1 [Example 42, 1-((3S,4R)-1-(2-methoxyethyl)-4-phenylpyrrolidin-3-yl)-3-(4-methyl-2-phenyloxazol-5-yl)urea]
< 100	COCCN1C[C@@H](NC(=O)Nc2oc(C(C)C)nc2-c2ccccc2)[C@H](c2ccc(F)c(F)c2)C1 [Example 43, 1-((3S,4R)-4-(3,4-difluorophenyl)-1-(2-methoxyethyl)pyrrolidin-3-yl)-3-(2-isopropyl-4-phenyloxazol-5-yl)urea]
100 to 1000	COCCN1C[C@@H](NC(=O)Nc2oc(C(C)C)nc2-c2ccccc2)[C@H](c2ccccc2)C1 [Example 44, 11-(2-isopropyl-4-phenyloxazol-5-yl)-3-((3S,4R)-1-(2-methoxyethyl)-4-phenylpyrrolidin-3-yl)urea]
< 100	COCCN1C[C@@H](NC(=O)Nc2sc(-c3ccccc3)nc2C)[C@H](c2ccc(F)c(F)c2)C1 [Example 45, 11-((3S,4R)-4-(3,4-difluorophenyl)-1-(2-methoxyethyl)pyrrolidin-3-yl)-3-(4-methyl-2-phenylthiazol-5-yl)urea]
< 100	COCCN1C[C@@H](NC(=O)Nc2sc(-c3ccccc3)nc2C)[C@H](c2ccccc2)C1 [Example 46, 1-((3S,4R)-1-(2-methoxyethyl)-4-phenylpyrrolidin-3-yl)-3-(4-methyl-2-phenylthiazol-5-yl)urea]
< 100	COCCN1C[C@@H](NC(=O)Nc2sc(C(C)(C)O)nc2-c2ccccc2)[C@H](c2ccc(F)c(F)c2)C1 [Example 51, 1-((3S,4R)-4-(3,4-difluorophenyl)-1-(2-methoxyethyl)pyrrolidin-3-yl)-3-(2-(2-hydroxypropan-2-yl)-4-phenylthiazol-5-yl)urea]
100 to 1000	COCCN1C[C@@H](NC(=O)Nc2nc(-c3ccccc3)nn2C)[C@H](c2ccc(F)c(F)c2)C1 [Example 54, 1-((3S,4R)-4-(3,4-difluorophenyl)-1-(2-methoxyethyl)pyrrolidin-3-yl)-3-(1-methyl-3-phenyl-1H-1,2,4-triazol-5-yl)urea]
